Target: T1, TNKS2 (tankyrase 2) (Homo sapiens, UniProt Q9H2K2)
T1 construct: recombinant His-tagged human TNKS2 poly(adenosine diphosphate)-ribose polymerase (PARP) domain, baculovirus-expressed
T1 sequence (Q9H2K2 946-1162 limits assumed): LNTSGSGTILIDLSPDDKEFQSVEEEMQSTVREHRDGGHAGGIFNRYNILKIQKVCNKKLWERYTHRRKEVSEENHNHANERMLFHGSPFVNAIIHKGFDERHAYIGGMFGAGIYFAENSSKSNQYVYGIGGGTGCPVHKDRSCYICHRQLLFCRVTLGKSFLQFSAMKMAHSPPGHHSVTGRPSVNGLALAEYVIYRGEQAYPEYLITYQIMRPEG
Assay: auto-PARsylation assay with purified PARP domain on Ni2+-coated Flashplate, radioactive scintillation readout
Type: biochemical

CCc1cc2ccc(C(C)(C#N)Cc3cccc(C#N)c3)cc2[nH]c1=O (single isomer, unassigned) [JNJ-BJ, (R or S)-3-[2-cyano-2-(3-ethyl-2-oxo-1H-quinolin-7-yl)propyl]benzonitrile]
IC50: 130 nM

— publication PMC4719581, “Tankyrase inhibition impairs directional migration and invasion of lung cancer cells by affecting microtubule dynamics and polarity signals” (BMC Biology, 2016)
